In patent publication US9149465B2, “Isoxazolines as inhibitors of fatty acid amide hydrolase” (Infinity Pharmaceuticals, Inc., priority 2009, dated 2015) one finds Ki data, which are given here for 36 compounds.

pKi: −log10 of the molar value.

For this assay, the target named is T1, human FAAH (Homo sapiens, UniProt O00519).
T1 construct: host or cells: COS-7 cells, transient transfection; 13,000 g membrane fraction solubilised in 1% Triton X-100
T1 sequence (O00519 1-579): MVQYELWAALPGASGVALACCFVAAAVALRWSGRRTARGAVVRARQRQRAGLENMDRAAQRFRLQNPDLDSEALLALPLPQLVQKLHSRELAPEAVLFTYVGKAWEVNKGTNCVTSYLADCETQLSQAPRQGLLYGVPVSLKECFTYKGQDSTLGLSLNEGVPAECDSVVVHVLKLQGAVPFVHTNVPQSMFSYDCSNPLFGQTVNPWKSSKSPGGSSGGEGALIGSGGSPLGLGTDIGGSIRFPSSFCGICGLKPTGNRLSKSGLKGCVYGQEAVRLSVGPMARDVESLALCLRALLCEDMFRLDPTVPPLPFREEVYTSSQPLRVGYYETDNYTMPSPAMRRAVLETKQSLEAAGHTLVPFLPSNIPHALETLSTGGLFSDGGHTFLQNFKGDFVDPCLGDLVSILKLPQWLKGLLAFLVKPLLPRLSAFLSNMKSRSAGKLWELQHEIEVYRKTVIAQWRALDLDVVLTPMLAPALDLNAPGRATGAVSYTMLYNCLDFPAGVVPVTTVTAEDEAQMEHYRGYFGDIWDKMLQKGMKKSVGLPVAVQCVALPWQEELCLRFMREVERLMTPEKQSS
In words: Inhibition of human FAAH (AMC arachidonoyl amide fluorescence assay). The assay is classed as biochemical. The following applies: inhibitor preincubated 30 minutes at room temperature; 20 μM AMC arachidonoyl amide; 4 hours; read-out: Activity (Ki, inhibitors of human FAAH). An outline of the steps: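 Solubilized membrane fraction from COS-7 cells transiently expressing human FAAH (0.05 mg/mL final) preincubated 30 min at room temperature with 3-fold serially diluted inhibitor, then reacted 4 h at room temperature with 20 μM AMC arachidonoyl amide. Stopped with α-ketoheterocycle; fluorescence read. Ki from single-site competitive fit, Km fixed at 12 μM.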
Take `BrC1=NO[C@H](Cc2ccccc2)C1` (single isomer, unassigned) [I-48]: the negative-log Ki (pKi) was not above 6.00.
The value for `CC1(c2ccc(OC(F)(F)F)cc2)CC(Oc2ccc(-n3cccn3)nc2)=NO1` (racemic) [I-198] was not below 7.00; that for `Nc1ccc(OC2=NOC(c3ccc(Oc4ccccc4)cc3)C2)cn1` (stereo not drawn) [I-93] was not below 7.00; that for `CN(C)S(=O)(=O)c1ccc([C@H]2CC(Oc3ccc(S(C)(=O)=O)nc3)=NO2)cc1` (racemic) [I-213] was not below 7.00.
The same measure for `BrC1=NOC(c2ccc(Oc3ccccc3)cc2)C1` (single isomer, unassigned) [I-10]: not below 7.00; for `O=C(O)CNC(=O)c1ccc(OC2=NOC(c3ccc(OC(F)(F)F)cc3)C2)cn1` (racemic) [I-106]: not below 7.00; for `NC(=O)CCc1ccc(OC2=NOC(c3ccc(Oc4ccccc4)cc3)C2)cn1` (racemic) [I-100]: not below 7.00.
The value for `c1ccc(-c2ccc([C@H]3CC(Oc4cccnc4)=NO3)cc2)cc1` (racemic) [I-101] was not below 7.00; that for `O=C(O)CCc1ccc(OC2=NOC(c3ccc(OC(F)(F)F)cc3)C2)cn1` (racemic) [I-128] was not below 7.00; that for `NC(=O)c1cncc(OC2=NOC(c3ccc(Oc4ccccc4)cc3)C2)c1` (single isomer, unassigned) [I-47] was 6.00 to 7.00.
As to `CNC(=O)c1ccc([C@H]2CC(Br)=NO2)cc1` (racemic) [I-204], the pKi was 6.00 to 7.00.
The same measure for `FC(F)(F)Oc1ccc(C2CC(Oc3ccc(-c4nccs4)nc3)=NO2)cc1` (racemic) [I-162]: not below 7.00; for `COC(=O)c1ccc(OC2=NOC(c3ccc(Oc4ccccc4)cc3)C2)cn1` (racemic) [I-67]: not below 7.00; for `FC(F)(F)Oc1ccc(C2CC(Sc3ccccc3)=NO2)cc1` (racemic) [I-248]: not above 6.00.
`NC(=O)c1cccc(-c2cncc(OC3=NOC(c4ccc(OC(F)(F)F)cc4)C3)c2)c1` (racemic) [I-73]: the pKi was not below 7.00.
The value for `c1ccc(OC2=NOC(c3ccc(Oc4ccccc4)cc3)C2)cc1` (single isomer, unassigned) [I-23] was not above 6.00.
The same measure for `CCCCc1ccc(C2CC(Oc3ccc(S(C)(=O)=O)nc3)=NO2)cc1` (racemic) [I-181]: not below 7.00; for `COC(=O)c1ccc(OC2=NO[C@@H](c3ccc(OC(F)(F)F)c(F)c3)C2)cn1` (racemic) [I-122]: not below 7.00; for `Cn1nccc1-c1ccc(OC2=NOC(c3ccc(OC(F)(F)F)cc3)C2)cn1` (racemic) [I-189]: not below 7.00.
The same measure for `CS(=O)(=O)c1ccc(OC2=NOC(c3ccc(Oc4ccccc4)cc3)C2)cn1` (racemic) [I-197]: not below 7.00.
As to `CC1(c2ccc(OC(F)(F)F)cc2)CC(Oc2ccc(-c3nccs3)nc2)=NO1` (racemic) [I-164], the pKi was not below 7.00.
The same measure for `Clc1ccccc1C1CC(Br)=NO1` (single isomer, unassigned) [I-5]: 6.00 to 7.00; for `COC(=O)c1cc(OC2=NOC(c3ccc(OC(F)(F)F)cc3)C2)ccn1` (racemic) [I-151]: not below 7.00; for `COc1ncc(OC2=NOC(c3ccc(OC(F)(F)F)cc3)C2)cc1F` (racemic) [I-136]: 6.00 to 7.00.
The value for `O=S(=O)(c1ccc([C@H]2CC(Br)=NO2)cc1)N1CCCC1` (racemic) [I-211] was not below 7.00; that for `O=C(O)c1ccc(-c2ccc(OC3=NOC(c4ccc(OC(F)(F)F)cc4)C3)cn2)s1` (racemic) [I-193] was 6.00 to 7.00; that for `COC(=O)c1cccc(-c2ccc(OC3=NOC(c4ccc(OC(F)(F)F)cc4)C3)cn2)c1` (racemic) [I-83] was 6.00 to 7.00.
Take `Fc1cncc(OC2=NOC(c3ccc(Oc4ccccc4)cc3)C2)c1` (single isomer, unassigned) [I-43]: the negative logarithm of the Ki (pKi) is not below 7.00.
The value for `O=C(O)c1ccc(SC2=NOC(c3ccc(OC(F)(F)F)cc3)C2)cc1` (racemic) [I-251] was not above 6.00; that for `O=C(NCc1ccccc1)c1ccc([C@H]2CC(Br)=NO2)cc1` (racemic) [I-22] was 6.00 to 7.00.
The same measure for `NS(=O)(=O)c1ccc(OC2=NOC(c3ccc(Oc4ccccc4)cc3)C2)cc1` (racemic) [I-90]: not below 7.00; for `CN(C)S(=O)(=O)c1cccc(OC2=NOC(C)(c3ccc(OC(F)(F)F)cc3)C2)c1` (racemic) [I-233]: not above 6.00.
As for `FC(F)(F)Oc1ccc(C2CC(Oc3ccc(-c4nnn[nH]4)nc3)=NO2)cc1` (racemic) [I-195], the pKi was not below 7.00.
The same measure for `O=C(NCCO)c1ccc(OC2=NOC(c3ccc(OC(F)(F)F)cc3)C2)cn1` (racemic) [I-109]: not below 7.00; for `O=[N+]([O-])c1ccc(OC2=NOC(c3ccc(Oc4ccccc4)cc3)C2)cc1` (single isomer, unassigned) [I-29]: 6.00 to 7.00; for `c1ccc(Oc2ccc(C3CC(Oc4cnc5[nH]ccc5c4)=NO3)cc2)cc1` (racemic) [I-68]: not below 7.00.

One may read the pKi as the Ki on a negative log10 scale, so that one unit is a factor of ten.
